According to patent US12643867B2, “Compositions and uses thereof” (University of Virginia Patent Foundation, priority 2017, dated 2026):

How the values were obtained:
[1] = biological target: T1, DGKQ (Diacylglycerol kinase theta) (Homo sapiens, UniProt P52824); assay: SILAC LC-MS ATP acyl phosphate probe competition, recombinant DGK-HEK293T lysates; format: binding; conditions: ATP 1 mM, Ketanserin, Ritanserin 100 μM, RF001 1 mM; for SILAC ratio, DGKQ C1 probe-modified peptide: site C1 (K202); for SILAC ratio, DGKQ DAGKa probe-modified peptide: site DAGKa (K768); for SILAC ratio, DGKQ DAGKc probe-modified peptide: site DAGKc (K596)
T1 construct: expressed in transfected cells; host or cells: SILAC HEK293T
T1 sequence (P52824 1-942): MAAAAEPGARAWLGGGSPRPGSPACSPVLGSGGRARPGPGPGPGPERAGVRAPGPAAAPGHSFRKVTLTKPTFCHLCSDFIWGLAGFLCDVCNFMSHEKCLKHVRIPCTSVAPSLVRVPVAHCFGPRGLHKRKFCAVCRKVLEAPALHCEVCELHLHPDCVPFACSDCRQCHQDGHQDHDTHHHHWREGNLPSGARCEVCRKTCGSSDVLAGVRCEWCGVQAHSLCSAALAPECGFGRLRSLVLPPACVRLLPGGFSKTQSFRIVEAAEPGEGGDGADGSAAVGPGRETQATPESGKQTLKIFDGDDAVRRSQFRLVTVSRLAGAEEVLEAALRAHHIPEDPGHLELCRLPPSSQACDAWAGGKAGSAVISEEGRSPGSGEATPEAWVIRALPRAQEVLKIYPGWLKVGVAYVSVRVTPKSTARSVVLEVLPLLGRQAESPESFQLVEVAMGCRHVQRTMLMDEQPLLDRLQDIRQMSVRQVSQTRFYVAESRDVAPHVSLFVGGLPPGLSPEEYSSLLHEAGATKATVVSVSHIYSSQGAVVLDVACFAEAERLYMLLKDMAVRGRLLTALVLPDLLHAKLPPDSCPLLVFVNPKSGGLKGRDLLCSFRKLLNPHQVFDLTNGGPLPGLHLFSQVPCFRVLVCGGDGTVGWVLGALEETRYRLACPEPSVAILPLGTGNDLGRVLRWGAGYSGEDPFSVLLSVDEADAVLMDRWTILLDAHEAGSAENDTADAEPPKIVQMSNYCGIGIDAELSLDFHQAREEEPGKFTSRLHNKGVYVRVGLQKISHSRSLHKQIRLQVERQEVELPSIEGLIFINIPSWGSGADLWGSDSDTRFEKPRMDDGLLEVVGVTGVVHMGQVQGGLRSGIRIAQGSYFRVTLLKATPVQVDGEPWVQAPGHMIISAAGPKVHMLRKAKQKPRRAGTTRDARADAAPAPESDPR
From the text: (§1) Recombinant DGK proteins were produced by transient transfection of HEK293T cells with recombinant DNA. pDONR223-DGKK was a gift from William Hahn & David Root (Addgene plasmid #23487). pCSF107mT-GATEWAY-3′-FLAG was a gift from Todd Stukenberg (Addgene plasmid #67619). pCSF107mT-DGKK-FLAG construct was generated by recombination of the Addgene plasmids using the Gateway cloning system (Invitrogen). All other vectors were gifted to Dr. Kevin Lynch (University of Virginia, School of Medicine) by Dr. Kaoru Goto (Yamagata University, School of Medicine) and Dr. Fumio Sakane (Chiba University) and were kindly shared with us: pcDNA3-FLAG-DGKA (rat), pCMV-Tag2B-FLAG-DGKQ (human), pcDNA3-DGKE-3×Flag (human), and pCMV-SPORT6-HA-DGKZ (human). HEK293T cells were plated at a concentration of 400,000 cells in complete DMEM and grown to 50-60% confluency. A polyethyleneimine (PEI) stock solution was prepared (1 mg/mL, pH 7.4) and filter sterilized. Serum-free DMEM (600 μL) was mixed gently with 2.6 μg DNA and 20 μL of sterile PEI (1 mg/mL, pH 7.4) in a sterile microfuge tube. Mixtures were incubated for 30 min at 25° C. The mixture was then added drop-wise to each 10 cm^2 plate, rocked back and forth to mix, and placed back in the incubator. Cell pellets were harvested after two full days of growth, snap-frozen in liquid N2, and stored at −80° C. until use. Recombinant proteins were produced by transient transfection in SILAC HEK293T cells using the procedure described above, except that cells were plated at a concentration of 1×10^6 cells per 10 cm^2 plate and grown to ˜70% confluency prior to introducing transfection mixture.
(§2) Proteomes were diluted to 2 mg/ml in kinase buffer. The light and heavy proteomes (0.5 mg, 250 μL total reaction volume) were pre-treated with vehicle or compound, respectively (5 μL, DMSO (light) or 50× stock in DMSO (heavy)), mixed gently, and incubated at 25° C. for 30 min. […] After incubation, matched light and heavy proteomes were transferred and mixed in a 1:1 ratio in a two-dram vial containing 4:1:3 MeOH/CHCl3/H2O (2 mL MeOH, 500 AL CHCl3, 1.5 mL H2O) for extraction of proteins to remove excess probe, quickly vortexed, and centrifuged at 1,400×g for 3 min to pellet protein. Organic and aqueous layers were removed using a Pasteur pipette, and the protein pellet was transferred to a screw-top tube in 600 μL MeOH. A second extraction was performed by adding CHCl3 (150 μL) and H2O (600 μL) to each sample, vortexed, and centrifuged at 1,400×g for 3 min to pellet protein. Organic and aqueous layers were removed by pipetting. MeOH added to pellet (600 μL) and pellets were re-suspended by sonication (3×1 sec pulse, 20% amplitude) for a final extraction. Samples were then centrifuged at 17,000×g for 5 min to pellet protein and MeOH was removed by pipetting. The pellets were re-suspended in 10 M urea/25 mM ammonium bicarbonate ([…]), brought to a final volume of 1 mL with 25 mM ammonium bicarbonate, reduced with 10 mM DTT for 15 min at 65° C. allowed to cool, and then alkylated with 40 mM iodoacetamide for 30 min at 25° C. in the dark. To desalt the samples, each was transferred to a two-dram glass vial, and to the vial 4:1:2 MeOH/CHCl3/H2O (2 mL MeOH, 500 AL CHCl3, 1 mL H2O) was added. The vials were vortexed quickly, spun at 1.400×g for 3 min to pellet protein, and aqueous and organic layers were removed using a Pasteur pipette. The resulting protein pellet was transferred to a screw-top tube in 600 μL MeOH, and then CHCl3 (150 μL) and HO (600 μL) were added to extract protein a second time. The samples were vortexed quickly, centrifuged at 1,400×g to pellet protein, and the aqueous and organic layers were removed by pipetting. Resulting protein pellet was suspended in MeOH (600 μL) via sonication (3×1 sec pulse, 20% amplitude), centrifuged at 17,000×g for 5 min to pellet protein, and MeOH removed by pipetting. […]

[2] = biological target: T2, DGKZ (Diacylglycerol kinase zeta) (Homo sapiens, UniProt Q13574); assay: as above; format: binding; conditions: ATP 1 mM, Ketanserin, Ritanserin 100 μM, RF001 1 mM; for SILAC ratio, DGKZ C1 probe-modified peptide: site C1 (K323); for SILAC ratio, DGKZ DAGKa probe-modified peptide: site DAGKa (K662); for SILAC ratio, DGKZ DAGKc probe-modified peptide: site DAGKc (K500)
T2 construct: expressed in transfected cells; host or cells: SILAC HEK293T
T2 sequence (Q13574 whole entry): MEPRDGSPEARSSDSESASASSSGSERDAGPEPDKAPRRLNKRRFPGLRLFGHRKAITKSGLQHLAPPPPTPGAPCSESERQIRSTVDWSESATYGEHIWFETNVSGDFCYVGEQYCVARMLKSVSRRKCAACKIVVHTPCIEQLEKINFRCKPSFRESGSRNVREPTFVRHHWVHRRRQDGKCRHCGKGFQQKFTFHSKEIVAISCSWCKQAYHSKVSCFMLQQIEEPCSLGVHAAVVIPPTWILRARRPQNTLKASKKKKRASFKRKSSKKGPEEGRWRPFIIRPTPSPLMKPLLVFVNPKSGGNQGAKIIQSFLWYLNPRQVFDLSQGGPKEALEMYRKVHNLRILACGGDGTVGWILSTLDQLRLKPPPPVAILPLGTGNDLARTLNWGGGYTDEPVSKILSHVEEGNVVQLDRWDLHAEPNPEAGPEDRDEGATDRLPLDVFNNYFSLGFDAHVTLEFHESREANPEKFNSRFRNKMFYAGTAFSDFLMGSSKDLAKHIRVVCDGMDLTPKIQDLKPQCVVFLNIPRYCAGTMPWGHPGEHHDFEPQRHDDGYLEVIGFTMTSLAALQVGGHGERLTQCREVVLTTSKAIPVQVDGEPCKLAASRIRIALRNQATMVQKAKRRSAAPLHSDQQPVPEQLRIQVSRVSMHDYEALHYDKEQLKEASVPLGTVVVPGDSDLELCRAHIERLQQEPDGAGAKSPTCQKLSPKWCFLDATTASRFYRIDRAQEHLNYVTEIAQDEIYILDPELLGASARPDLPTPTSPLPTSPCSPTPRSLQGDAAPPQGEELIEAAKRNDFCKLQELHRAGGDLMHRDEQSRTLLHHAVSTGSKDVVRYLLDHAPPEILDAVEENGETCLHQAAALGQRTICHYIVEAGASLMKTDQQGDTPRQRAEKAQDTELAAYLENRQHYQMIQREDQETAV
From the text: as §1, §2

Compound | SILAC ratio, DGKQ C1 probe-modified peptide [1] | SILAC ratio, DGKQ DAGKa probe-modified peptide [1] | SILAC ratio, DGKQ DAGKc probe-modified peptide [1] | SILAC ratio, DGKZ C1 probe-modified peptide [2] | SILAC ratio, DGKZ DAGKa probe-modified peptide [2] | SILAC ratio, DGKZ DAGKc probe-modified peptide [2]
O=C(c1ccc(F)cc1)C1CCN(CCn2c(=O)[nH]c3ccccc3c2=O)CC1 [Ketanserin] | 0.9 | 1.1 | 1.2 | 1.3 | 1.4 | 1.5
Fc1ccc(C(=C2CCNCC2)c2ccc(F)cc2)cc1 [RF001, 4-(Bis(4-fluorophenyl)methylene) piperidine] | 0.7 | 1.2 | 0.9 | 1.1 | 1.1 | 0.9
Cc1nc2sccn2c(=O)c1CCN1CCC(=C(c2ccc(F)cc2)c2ccc(F)cc2)CC1 [Ritanserin] | 1.3 | 1.4 | 1.1 | 1.4 | 1.8 | 1.2
